Molecules are shown by their SMILES. The source made the active and inactive calls.

One assay addresses Cytochrome P450 3A4 (Homo sapiens, UniProt P08684).
The target of assay [1] is Voltage-gated inwardly rectifying potassium channel KCNH2 (Homo sapiens, UniProt Q12809). The assay can be described thus: concentration-dependent hERG rescue from blockers – cell-based, thallium flux, dose response (AID 2121). The class given is ADME. On the technique in general: Block of hERG is tested as a sign of cardiac risk.
Voltage-gated inwardly rectifying potassium channel KCNH2, sequence (Q12809 whole entry): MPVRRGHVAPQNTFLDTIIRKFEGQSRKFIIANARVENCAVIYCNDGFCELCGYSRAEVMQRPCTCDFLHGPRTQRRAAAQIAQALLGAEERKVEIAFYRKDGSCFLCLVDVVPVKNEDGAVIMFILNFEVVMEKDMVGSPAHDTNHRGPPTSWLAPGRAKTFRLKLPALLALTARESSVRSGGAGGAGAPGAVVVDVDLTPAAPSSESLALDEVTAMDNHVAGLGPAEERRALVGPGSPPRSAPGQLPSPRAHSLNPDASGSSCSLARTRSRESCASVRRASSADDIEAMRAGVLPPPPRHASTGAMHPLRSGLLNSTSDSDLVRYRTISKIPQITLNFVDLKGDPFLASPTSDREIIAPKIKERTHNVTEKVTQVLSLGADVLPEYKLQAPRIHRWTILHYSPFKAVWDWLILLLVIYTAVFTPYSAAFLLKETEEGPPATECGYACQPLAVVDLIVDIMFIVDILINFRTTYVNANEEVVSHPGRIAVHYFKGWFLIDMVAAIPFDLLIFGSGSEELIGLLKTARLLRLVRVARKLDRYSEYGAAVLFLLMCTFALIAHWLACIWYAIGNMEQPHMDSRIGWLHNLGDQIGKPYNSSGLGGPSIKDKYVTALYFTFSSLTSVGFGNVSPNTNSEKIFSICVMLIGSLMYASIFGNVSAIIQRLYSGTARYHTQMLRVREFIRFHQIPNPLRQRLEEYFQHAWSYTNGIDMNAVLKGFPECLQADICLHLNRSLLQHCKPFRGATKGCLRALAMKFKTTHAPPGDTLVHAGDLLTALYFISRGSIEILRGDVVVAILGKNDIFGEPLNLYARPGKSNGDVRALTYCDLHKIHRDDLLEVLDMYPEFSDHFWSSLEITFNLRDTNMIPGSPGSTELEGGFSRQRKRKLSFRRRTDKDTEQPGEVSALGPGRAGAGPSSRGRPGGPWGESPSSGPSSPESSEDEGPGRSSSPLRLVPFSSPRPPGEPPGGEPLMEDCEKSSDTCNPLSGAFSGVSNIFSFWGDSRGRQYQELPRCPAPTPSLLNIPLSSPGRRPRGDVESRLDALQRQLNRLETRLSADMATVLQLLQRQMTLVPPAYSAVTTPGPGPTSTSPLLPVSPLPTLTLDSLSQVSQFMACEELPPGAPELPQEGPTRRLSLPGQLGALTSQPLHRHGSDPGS
Assay [2] can be described thus: Luminescence Cell-Based Dose Retest to Confirm Inhibitors of Cancer Stem Cells. [Related pubchem assays (depositor defined):AID2717, AID2721]. It is filed as functional, Homo sapiens. The note with it: Homo sapiens.
The target of assay [3] is T1, Mannose-6-phosphate isomerase (Homo sapiens, UniProt P34949).
T1 sequence (P34949 whole entry): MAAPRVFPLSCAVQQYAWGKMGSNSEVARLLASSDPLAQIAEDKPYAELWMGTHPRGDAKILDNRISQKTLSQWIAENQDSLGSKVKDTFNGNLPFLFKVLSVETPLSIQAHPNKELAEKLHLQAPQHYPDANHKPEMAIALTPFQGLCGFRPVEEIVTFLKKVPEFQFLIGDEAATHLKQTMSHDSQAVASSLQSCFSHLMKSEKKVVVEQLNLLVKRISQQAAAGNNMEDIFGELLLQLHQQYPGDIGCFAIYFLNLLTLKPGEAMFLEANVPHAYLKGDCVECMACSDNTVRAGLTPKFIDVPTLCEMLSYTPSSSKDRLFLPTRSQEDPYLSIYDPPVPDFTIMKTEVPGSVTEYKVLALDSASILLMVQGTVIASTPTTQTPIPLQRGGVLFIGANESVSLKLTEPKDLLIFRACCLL
Nature of the assay: MPI inhibition at elevated mannose 6-phosphate – biochemical, fluorescence intensity, high mannose 6-phosphate, primary screen (AID 1220).

The next assay addresses Estrogen receptor beta (Homo sapiens, UniProt Q92731).
The target in another assay is T2, Estrogen receptor (Homo sapiens, UniProt P03372).
T2 sequence (P03372 whole entry): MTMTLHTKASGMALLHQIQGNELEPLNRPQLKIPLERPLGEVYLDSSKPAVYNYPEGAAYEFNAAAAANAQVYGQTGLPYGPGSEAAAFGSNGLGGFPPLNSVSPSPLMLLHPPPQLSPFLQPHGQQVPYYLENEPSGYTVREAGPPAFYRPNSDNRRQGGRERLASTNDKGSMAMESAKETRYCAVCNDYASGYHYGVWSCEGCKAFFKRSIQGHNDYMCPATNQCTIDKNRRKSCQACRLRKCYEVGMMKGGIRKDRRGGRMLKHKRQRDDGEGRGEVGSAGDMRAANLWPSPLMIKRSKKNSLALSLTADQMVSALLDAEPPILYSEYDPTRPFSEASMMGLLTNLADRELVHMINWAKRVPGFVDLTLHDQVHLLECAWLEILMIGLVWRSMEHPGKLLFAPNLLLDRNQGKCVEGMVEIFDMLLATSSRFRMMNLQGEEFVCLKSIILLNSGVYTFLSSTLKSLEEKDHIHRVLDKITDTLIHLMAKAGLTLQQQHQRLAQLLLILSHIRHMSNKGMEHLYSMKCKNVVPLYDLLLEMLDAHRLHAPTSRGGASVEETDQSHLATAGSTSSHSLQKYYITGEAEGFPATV

In assay [4] the target is T3, High affinity choline transporter 1 (Homo sapiens, UniProt Q9GZV3).
T3 sequence (Q9GZV3 whole entry): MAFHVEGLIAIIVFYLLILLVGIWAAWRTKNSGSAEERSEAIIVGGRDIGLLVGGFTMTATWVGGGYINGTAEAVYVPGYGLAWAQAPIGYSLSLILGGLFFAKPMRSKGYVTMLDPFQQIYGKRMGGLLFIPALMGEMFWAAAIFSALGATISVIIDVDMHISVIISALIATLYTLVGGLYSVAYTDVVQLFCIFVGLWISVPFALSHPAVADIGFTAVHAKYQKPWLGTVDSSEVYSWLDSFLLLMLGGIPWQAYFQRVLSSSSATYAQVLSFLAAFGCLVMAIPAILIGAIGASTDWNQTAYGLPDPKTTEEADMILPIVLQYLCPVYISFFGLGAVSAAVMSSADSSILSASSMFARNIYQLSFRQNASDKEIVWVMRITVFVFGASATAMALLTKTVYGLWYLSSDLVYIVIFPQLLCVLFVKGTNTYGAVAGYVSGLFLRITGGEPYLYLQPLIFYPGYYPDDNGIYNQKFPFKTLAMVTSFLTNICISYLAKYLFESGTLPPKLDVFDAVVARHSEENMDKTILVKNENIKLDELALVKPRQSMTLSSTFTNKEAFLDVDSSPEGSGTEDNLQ
The assay can be described thus: human choline transporter blockers, potency – cell-based, 5-point CRC, membrane potential dye, dose response (AID 504840). It is filed as functional.

The nature of assay [5]: viability loss in THP-1 monocytes – THP-1 cells, cytotoxicity control for Vif-APOBEC3G degradation inhibitor project, dose response (AID 1117359). The class given is functional. Particulars: THP-1.
For assay [6], the target named is T4, Dual specificity protein phosphatase 6 (Rattus norvegicus, UniProt Q64346).
T4 sequence (Q64346 whole entry): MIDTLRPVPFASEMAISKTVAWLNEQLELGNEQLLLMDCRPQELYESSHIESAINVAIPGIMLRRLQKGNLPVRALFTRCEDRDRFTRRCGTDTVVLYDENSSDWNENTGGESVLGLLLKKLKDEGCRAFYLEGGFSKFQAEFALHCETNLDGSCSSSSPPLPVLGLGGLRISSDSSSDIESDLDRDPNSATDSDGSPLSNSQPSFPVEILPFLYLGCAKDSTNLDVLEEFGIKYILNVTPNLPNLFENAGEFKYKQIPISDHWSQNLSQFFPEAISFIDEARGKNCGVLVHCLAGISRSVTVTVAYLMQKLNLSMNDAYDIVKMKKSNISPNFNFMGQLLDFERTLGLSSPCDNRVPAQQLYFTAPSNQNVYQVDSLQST
The assay can be described thus: inhibition of rat DUSP6 enzyme activity – biochemical, in vitro, primary screen (AID 425).

The target in assay [7] is Induced myeloid leukemia cell differentiation protein Mcl-1 (Homo sapiens, UniProt Q07820). It is filed as functional.
Induced myeloid leukemia cell differentiation protein Mcl-1, sequence (Q07820 whole entry): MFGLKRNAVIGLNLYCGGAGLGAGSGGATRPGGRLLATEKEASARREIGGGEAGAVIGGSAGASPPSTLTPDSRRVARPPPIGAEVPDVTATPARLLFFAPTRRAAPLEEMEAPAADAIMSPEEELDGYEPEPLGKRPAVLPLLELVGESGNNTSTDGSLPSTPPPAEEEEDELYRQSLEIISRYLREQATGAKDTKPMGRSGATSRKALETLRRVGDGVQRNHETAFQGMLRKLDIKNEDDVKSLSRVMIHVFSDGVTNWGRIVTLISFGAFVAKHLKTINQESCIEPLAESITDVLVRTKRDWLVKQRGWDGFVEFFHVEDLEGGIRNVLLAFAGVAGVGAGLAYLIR
Assay [8] deals with T5, Dual specificity protein phosphatase 3 (Homo sapiens, UniProt P51452). The assay can be described thus: VHR1 phosphatase inhibitors, primary screen, biochemical, absorbance, uHTS (AID 1654).
T5 sequence (P51452 whole entry): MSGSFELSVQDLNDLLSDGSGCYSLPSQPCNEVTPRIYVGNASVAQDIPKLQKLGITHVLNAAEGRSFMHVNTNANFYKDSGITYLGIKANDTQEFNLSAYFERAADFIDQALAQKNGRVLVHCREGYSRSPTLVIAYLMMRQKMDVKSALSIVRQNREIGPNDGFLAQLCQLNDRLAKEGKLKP
Assay [9] deals with T5, Dual specificity protein phosphatase 3. The assay can be described thus: VHR1 phosphatase inhibitors, biochemical (AID 1878).
Assay [10] addresses T6, Histone-lysine N-methyltransferase NSD2 (Homo sapiens, UniProt O96028).
T6 sequence (O96028 whole entry): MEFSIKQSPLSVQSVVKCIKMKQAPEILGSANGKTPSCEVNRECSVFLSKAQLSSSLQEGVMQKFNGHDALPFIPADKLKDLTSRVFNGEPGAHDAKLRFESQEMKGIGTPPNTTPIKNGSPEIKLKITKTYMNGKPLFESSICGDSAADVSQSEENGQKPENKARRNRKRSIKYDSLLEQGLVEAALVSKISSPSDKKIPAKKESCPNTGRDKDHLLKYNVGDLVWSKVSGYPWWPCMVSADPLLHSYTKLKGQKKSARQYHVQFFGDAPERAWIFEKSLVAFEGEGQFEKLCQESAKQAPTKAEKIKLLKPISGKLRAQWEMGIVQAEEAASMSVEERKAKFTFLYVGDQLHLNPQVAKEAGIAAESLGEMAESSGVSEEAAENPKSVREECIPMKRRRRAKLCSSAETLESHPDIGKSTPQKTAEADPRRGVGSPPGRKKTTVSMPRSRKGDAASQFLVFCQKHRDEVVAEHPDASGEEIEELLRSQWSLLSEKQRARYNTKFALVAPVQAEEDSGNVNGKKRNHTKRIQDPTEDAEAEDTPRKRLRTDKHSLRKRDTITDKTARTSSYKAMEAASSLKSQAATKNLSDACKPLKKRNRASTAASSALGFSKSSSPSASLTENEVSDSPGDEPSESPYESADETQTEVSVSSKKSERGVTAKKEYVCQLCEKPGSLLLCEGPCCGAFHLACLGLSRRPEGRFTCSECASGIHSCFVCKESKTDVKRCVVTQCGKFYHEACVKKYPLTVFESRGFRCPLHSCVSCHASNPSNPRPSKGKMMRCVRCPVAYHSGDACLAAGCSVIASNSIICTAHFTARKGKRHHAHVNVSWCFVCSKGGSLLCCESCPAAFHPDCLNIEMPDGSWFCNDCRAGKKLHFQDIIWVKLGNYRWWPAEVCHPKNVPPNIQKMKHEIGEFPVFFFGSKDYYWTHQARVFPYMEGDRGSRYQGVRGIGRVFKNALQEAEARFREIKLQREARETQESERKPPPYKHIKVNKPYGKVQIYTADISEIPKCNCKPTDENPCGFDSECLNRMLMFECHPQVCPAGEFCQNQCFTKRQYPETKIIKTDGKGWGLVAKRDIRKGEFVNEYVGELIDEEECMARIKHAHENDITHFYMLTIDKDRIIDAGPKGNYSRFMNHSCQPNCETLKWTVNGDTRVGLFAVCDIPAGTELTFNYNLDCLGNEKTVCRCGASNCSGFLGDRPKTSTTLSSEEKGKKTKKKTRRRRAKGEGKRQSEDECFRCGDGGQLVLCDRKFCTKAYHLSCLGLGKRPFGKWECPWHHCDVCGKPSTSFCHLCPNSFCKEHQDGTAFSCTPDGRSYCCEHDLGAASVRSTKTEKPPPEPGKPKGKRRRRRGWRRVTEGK
The class given is biochemical.

The target in a further assay is Ephrin type-A receptor 4 (Mus musculus, UniProt Q03137). The assay can be described thus: EphA4 ligand-binding antagonists – biochemical, colorimetric, mouse EphA4, primary screen (AID 689). It is filed as functional.
Ephrin type-A receptor 4, sequence (Q03137 whole entry): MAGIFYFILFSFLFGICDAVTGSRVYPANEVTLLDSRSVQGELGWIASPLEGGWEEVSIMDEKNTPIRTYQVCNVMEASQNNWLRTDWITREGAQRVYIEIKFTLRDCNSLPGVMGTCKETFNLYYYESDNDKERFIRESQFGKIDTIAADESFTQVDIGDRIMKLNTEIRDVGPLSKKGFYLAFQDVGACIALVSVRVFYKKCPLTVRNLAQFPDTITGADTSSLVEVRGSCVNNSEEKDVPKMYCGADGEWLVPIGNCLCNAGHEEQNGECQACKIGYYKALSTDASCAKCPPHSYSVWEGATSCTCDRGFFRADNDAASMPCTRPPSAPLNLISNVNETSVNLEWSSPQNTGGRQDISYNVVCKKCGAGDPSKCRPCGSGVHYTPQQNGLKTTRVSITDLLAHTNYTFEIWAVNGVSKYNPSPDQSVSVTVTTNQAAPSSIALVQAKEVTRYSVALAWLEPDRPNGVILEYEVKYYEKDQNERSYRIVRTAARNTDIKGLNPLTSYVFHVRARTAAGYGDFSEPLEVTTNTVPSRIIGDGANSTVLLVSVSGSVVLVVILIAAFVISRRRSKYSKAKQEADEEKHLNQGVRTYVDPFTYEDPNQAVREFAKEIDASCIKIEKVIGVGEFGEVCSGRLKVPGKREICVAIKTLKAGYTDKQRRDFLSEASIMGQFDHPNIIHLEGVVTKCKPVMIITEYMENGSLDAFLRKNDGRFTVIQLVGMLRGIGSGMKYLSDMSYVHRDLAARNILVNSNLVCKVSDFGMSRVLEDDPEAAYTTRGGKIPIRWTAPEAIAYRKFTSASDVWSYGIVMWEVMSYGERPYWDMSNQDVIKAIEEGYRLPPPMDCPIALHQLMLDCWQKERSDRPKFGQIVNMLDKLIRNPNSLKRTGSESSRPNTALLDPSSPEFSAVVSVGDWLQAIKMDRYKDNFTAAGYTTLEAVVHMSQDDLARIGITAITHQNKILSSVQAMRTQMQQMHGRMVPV
Assay [11] is described as follows: NIH3T3 cell viability loss – ATP luminescence, mouse fibroblasts, counter-screen, dose response (AID 2010).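 Further: cells exposed to compound for about 90 hours before reading.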 It is filed as functional, cell-based.
Assay [12] is described as follows: Trypanosoma cruzi growth suppression in host cells – NIH3T3 host cells, beta-gal luminescence, confirmation (AID 2044).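 Further: intracellular parasites grown in NIH/3T3 mouse fibroblasts as host cells; luminescent beta-galactosidase reporter signal from transgenic T. cruzi replicating inside host cells; inhibitors lower the luminescence signal.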 The class given is functional, cell-based.
The target of assay [13] is T7, Hepatocyte nuclear factor 4-alpha (Homo sapiens, UniProt P41235).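 Further: biochemical luminescence-based dose-response counterscreen measuring inhibition of HNF4 dimerization, run alongside a screen for blockers of ABHD5–perilipin-5 interaction; split luciferase complementation of HNF4 fusion proteins in cell lysate measuring dimerization.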
T7 sequence (P41235 whole entry): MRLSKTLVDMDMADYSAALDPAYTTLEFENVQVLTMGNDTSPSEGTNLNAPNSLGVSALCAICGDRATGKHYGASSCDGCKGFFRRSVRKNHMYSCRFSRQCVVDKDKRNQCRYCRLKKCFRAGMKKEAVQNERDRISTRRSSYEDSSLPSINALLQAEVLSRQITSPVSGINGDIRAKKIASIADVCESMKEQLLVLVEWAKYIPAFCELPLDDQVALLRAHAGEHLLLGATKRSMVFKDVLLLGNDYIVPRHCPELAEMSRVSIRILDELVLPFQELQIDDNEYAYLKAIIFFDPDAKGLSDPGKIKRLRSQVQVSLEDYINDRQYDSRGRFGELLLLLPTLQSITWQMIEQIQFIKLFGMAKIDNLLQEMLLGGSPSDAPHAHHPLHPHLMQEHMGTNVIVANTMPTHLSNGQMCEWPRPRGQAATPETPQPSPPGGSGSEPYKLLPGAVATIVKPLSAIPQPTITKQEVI
It is filed as functional, cell-based.

Estrogen receptor beta, sequence (Q92731 whole entry): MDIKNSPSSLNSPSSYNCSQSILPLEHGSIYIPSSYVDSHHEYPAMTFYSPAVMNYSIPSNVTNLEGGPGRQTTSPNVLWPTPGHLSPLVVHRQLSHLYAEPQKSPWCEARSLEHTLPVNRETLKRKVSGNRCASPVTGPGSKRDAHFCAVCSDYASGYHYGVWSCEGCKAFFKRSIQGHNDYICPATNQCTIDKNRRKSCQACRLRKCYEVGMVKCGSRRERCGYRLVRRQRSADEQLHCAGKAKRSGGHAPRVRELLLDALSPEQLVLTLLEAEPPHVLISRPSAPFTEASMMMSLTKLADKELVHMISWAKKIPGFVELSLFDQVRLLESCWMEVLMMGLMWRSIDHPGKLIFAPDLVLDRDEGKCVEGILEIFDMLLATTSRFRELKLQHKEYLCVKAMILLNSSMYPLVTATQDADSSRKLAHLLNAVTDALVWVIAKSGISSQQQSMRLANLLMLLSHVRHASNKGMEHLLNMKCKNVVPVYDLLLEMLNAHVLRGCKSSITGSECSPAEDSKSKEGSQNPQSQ
Cytochrome P450 3A4, sequence (P08684 whole entry): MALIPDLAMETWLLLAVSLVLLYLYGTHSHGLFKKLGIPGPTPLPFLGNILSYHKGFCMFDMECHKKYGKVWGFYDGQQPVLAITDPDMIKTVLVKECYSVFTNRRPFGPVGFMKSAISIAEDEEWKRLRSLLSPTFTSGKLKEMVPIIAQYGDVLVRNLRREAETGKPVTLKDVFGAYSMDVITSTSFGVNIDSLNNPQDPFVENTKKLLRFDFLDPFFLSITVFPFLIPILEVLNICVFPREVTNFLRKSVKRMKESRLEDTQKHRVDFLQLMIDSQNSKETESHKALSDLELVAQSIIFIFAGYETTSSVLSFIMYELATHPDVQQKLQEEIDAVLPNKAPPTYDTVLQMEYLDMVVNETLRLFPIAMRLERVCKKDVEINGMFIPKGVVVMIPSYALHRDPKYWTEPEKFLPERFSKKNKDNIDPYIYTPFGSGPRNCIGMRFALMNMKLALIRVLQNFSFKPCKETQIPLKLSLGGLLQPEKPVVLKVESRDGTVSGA

`O=C(NC(=S)Nc1cccc(Cl)c1N1CCCCC1)c1ccco1`: the values for the AC50 (on Cytochrome P450 3A4; in assay [2]) were 15.8 µM (inconclusive) and 4.12 µM (active), respectively. The EC50 in [1] was 0.46 µM (active).

Turning to `CC1Cc2ccccc2N1C(=O)CSc1nnc(-c2ccc(S(=O)(=O)N3CCCC3)cc2)n1C` (stereo unspecified), in assay [3], the IC50 was > 50 µM (not active).

Regarding `Cc1sc2ncnc(NCc3ccco3)c2c1C`, the IC50 at Estrogen receptor beta was 29.4 µM (active); at Estrogen receptor, 35.3 µM (not active); in assay [4] it was 13.2 µM (active).

Consider `COC(=O)c1ccc(O)c2nc3c(C=O)c(O)cc(O)c3nc12` [LOMOFUNGIN], for which the CC50 in [5] was 8.31 µM (active). Also, the IC50 was 48.2 µM (active) in [6], 3.76 µM (active) in assay [7], 2.06 µM (active) in assay [8] and < 1.23 µM (inactive) in assay [9].

Regarding `CCN(CC)CCCN(Cc1cc2cc3c(cc2nc1O)OCCO3)C(=O)Nc1ccccc1`, in assay [10], the AC50 is > 20 µM (inactive). Further, at Ephrin type-A receptor 4, the IC50 was 13.3 µM (active).

In the case of `CC1(C)CCCC2=C1CC1C(=O)N(O)C(=O)C1C2` (stereo unspecified), the IC50 against Estrogen receptor beta is reported as > 50 µM (not active).

For the compound `C=C1N(C)c2cc([N+](=O)[O-])c(N)cc2C1(C)C`, the EC50 in [11] was > 60 µM (not active); in [12], 5.96 µM (active). For the same compound, the IC50 in assay [3] was 11.5 µM (active).

Regarding `CCOC(=O)c1c(NC(C)=O)sc2c1CCC(C=O)=C2Sc1ccccc1`, the IC50 in [13] is 28.1 µM (inactive); on Ephrin type-A receptor 4 it was 2.26 µM (active). For the same compound, in [2], the AC50 is 3.85 µM (active).

Broadly, the AC50 is the concentration at which the activity in the assay is half-maximal. Usually EC50 stands for the concentration needed to bring the measured effect to its halfway point. The IC50 is the concentration at which inhibition is half-maximal. For orientation: CC50 means the concentration that lowers cell viability or growth by half.
